# Measurements: ChEMBL document CHEMBL1140743, “2-Oxotetrahydroquinoline-based antimalarials with high potency and metabolic stability” (J Med Chem, 2008)
# Key:
# Plasmodium falciparum [1] = assay: Antimalarial activity against Plasmodium falciparum in human red cells; format: functional; details: read-out: ED50 (the source's name)
# [2] = Inhibition of Plasmodium falciparum PFT
# [3] = (§1) Metabolic stability assessed as half life in mouse liver microsomes; format: ADME, Microsome; details: liver microsomes
# Plasmodium falciparum [4] = assay: Displacement of [3H]farnesylpyrophosphate from Plasmodium falciparum protein farnesyltransferase at 0.5 nM by scintillation proximity assay
# Plasmodium falciparum [5] = assay: Antimalarial activity against chloroquine-sensitive Plasmodium falciparum 3D7 in human red cells; format: functional; details: read-out: ED50 (the source's name)
# Plasmodium falciparum [6] = assay: Displacement of [3H]farnesylpyrophosphate from Plasmodium falciparum protein farnesyltransferase at 50 nM by scintillation proximity assay
# Plasmodium falciparum [7] = assay: Displacement of [3H]farnesylpyrophosphate from Plasmodium falciparum protein farnesyltransferase at 5 nM by scintillation proximity assay
# Plasmodium falciparum [8] = assay: Antimalarial activity against chloroquine-resistant, pyrimethamine-resistant Plasmodium falciparum K1 in human red cells; format: functional; details: read-out: ED50 (the source's name)
# Rattus norvegicus [9] = species: Rattus norvegicus; assay: Inhibition of rat protein farnesyltransferase at 50 nM
# Rattus norvegicus [10] = species: Rattus norvegicus; assay: Inhibition of rat protein farnesyltransferase at 5000 nM
# Rattus norvegicus [11] = species: Rattus norvegicus; assay: Inhibition of rat protein farnesyltransferase at 5 nM
# Rattus norvegicus [12] = species: Rattus norvegicus; assay: Inhibition of rat protein farnesyltransferase at 500 nM
# Liver = assay: as §1; format: ADME, Microsome; details: microsomes
SMILES,EC50 (Plasmodium falciparum [1]),IC50 [2],half-life [3],inhibition (Plasmodium falciparum [4]),EC50 (Plasmodium falciparum [5]),inhibition (Plasmodium falciparum [6]),inhibition (Plasmodium falciparum [7]),EC50 (Plasmodium falciparum [8]),inhibition (Rattus norvegicus [9]),inhibition (Rattus norvegicus [10]),inhibition (Rattus norvegicus [11]),inhibition (Rattus norvegicus [12]),t1/2 (Liver)
COC(=O)N1CCC(CN(C2Cc3cc(C#N)ccc3N(Cc3cncn3C)C2)S(=O)(=O)c2ccccn2)CC1 (configuration not stated),0.015 µM,0.0005 µM,,,,,,,,,,,
Cn1cnc(S(=O)(=O)N(CC(=O)OC(C)(C)C)C2Cc3cc(C#N)ccc3N(Cc3cncn3C)C2)c1 (configuration not stated),,,10 min,,,,,,,,,,
Cn1cncc1CN1C(=O)C(NS(=O)(=O)c2ccccn2)Cc2cc(Br)ccc21 (configuration not stated),,,,0%,5 µM,36%,15%,5 µM,,,,,
Cn1cnc(S(=O)(=O)N(CC(=O)NC(C)(C)C)C2Cc3cc(C#N)ccc3N(Cc3cncn3C)C2=O)c1 (configuration not stated),,,144 min,25%,0.2 µM,98%,86%,0.1 µM,0%,86%,0%,62%,
Cn1cnc(S(=O)(=O)N(CC(=O)NC(C)(C)C)C2Cc3cc(C#N)ccc3N(Cc3cncn3C)C2)c1 (configuration not stated),,,17 min,,,,,,,,,,
Cn1cncc1CN1C(=O)C(N(CC(=O)NC(C)(C)C)S(=O)(=O)c2cccc(F)c2)Cc2cc(C#N)ccc21 (configuration not stated),,,31 min,0%,3.6 µM,56%,19%,,,,,,
COC(=O)C1CCC(CN(C2Cc3cc(C#N)ccc3N(Cc3cncn3C)C2=O)S(=O)(=O)c2cn(C)cn2)CC1 (configuration not stated),,,,21%,0.105 µM,98%,83%,,,,,,
Cn1cnc(S(=O)(=O)N(Cc2ccc(-n3cccn3)cc2)C2Cc3cc(C#N)ccc3N(Cc3cncn3C)C2=O)c1 (configuration not stated),,,9 min,50%,0.08 µM,100%,97%,0.15 µM,4%,84%,0%,54%,
Cn1cnc(S(=O)(=O)NC2Cc3cc(Br)ccc3N(Cc3cncn3C)C2=O)c1 (configuration not stated),,,,5%,5 µM,60%,15%,3 µM,,,,,
Cn1cnc(S(=O)(=O)N(Cc2ccc(F)cc2F)C2Cc3cc(C#N)ccc3N(Cc3cncn3C)C2=O)c1 (configuration not stated),,,,4%,,80%,27%,,,,,,
Cn1cnc(S(=O)(=O)N(C(CC(=O)OC(C)(C)C)C(=O)OC(C)(C)C)C2Cc3cc(C#N)ccc3N(Cc3cncn3C)C2=O)c1 (configuration not stated),,,,0%,5 µM,0%,0%,5 µM,,,,,
Cn1cnc(S(=O)(=O)N(Cc2ccc(S(C)(=O)=O)cc2)C2Cc3cc(Br)ccc3N(Cc3cncn3C)C2=O)c1 (configuration not stated),,,,0%,0.85 µM,86%,26%,,0%,56%,0%,0%,
Cn1cnc(S(=O)(=O)N(Cc2ccc(C#N)cc2)C2Cc3cc(C#N)ccc3N(Cc3cncn3C)C2)c1 (configuration not stated),,,3 min,,,,,,,,,,
Cn1cnc(S(=O)(=O)N(CC(=O)c2ccsc2)C2Cc3cc(C#N)ccc3N(Cc3cncn3C)C2=O)c1 (configuration not stated),,,,26%,,98%,79%,,,,,,
Cn1cnc(S(=O)(=O)N(Cc2ccc(C#N)cc2)C2Cc3cc(C#N)ccc3N(Cc3cncn3C)C2=O)c1 (configuration not stated),,,40 min,26%,2.1 µM,91%,56%,2.1 µM,,,,,
C=C(C)CN(C1Cc2cc(C#N)ccc2N(Cc2cncn2C)C1=O)S(=O)(=O)c1cn(C)cn1 (configuration not stated),,,,4%,3.2 µM,86%,41%,2 µM,,,,,
Cn1cnc(S(=O)(=O)N(Cc2ccc(C(F)(F)F)o2)C2Cc3cc(C#N)ccc3N(Cc3cncn3C)C2=O)c1 (configuration not stated),,,,1%,0.625 µM,92%,67%,0.325 µM,,,,,
Cn1cnc(S(=O)(=O)N(CC(=O)NC(C)(C)C)C2Cc3cc(Br)ccc3N(Cc3cncn3C)C2=O)c1 (configuration not stated),,,,24%,0.105 µM,98%,81%,,,,,,
Cn1cnc(S(=O)(=O)N(Cc2ccccc2F)C2Cc3cc(C#N)ccc3N(Cc3cncn3C)C2=O)c1 (configuration not stated),,,,33%,0.8 µM,97%,71%,,,,,,
Cn1cnc(S(=O)(=O)NC2Cc3cc(C#N)ccc3N(Cc3cncn3C)C2=O)c1 (configuration not stated),,,,0%,,79%,41%,,,,,,
Cn1cnc(S(=O)(=O)N(Cc2ccccc2)C2Cc3cc(C#N)ccc3N(Cc3cncn3C)C2=O)c1 (configuration not stated),,,,45%,0.175 µM,98%,88%,0.1 µM,0%,61%,0%,5%,
Cn1cncc1CN1C(=O)C(N(CC(=O)NC(C)(C)C)S(=O)(=O)c2ccc3c(c2)OCCCO3)Cc2cc(C#N)ccc21 (configuration not stated),,,,0%,5 µM,22%,4%,,,,,,
Cc1c(S(=O)(=O)N(CC(=O)NC(C)(C)C)C2Cc3cc(C#N)ccc3N(Cc3cncn3C)C2=O)ncn1C (configuration not stated),,,,6%,5 µM,24%,11%,5 µM,,,,,
Cn1cnc(S(=O)(=O)N(Cc2ccc(S(C)(=O)=O)cc2)C2Cc3cc(C#N)ccc3N(Cc3cncn3C)C2=O)c1 (configuration not stated),,,133 min,23%,0.08 µM,99%,91%,,0%,73%,0%,23%,
Cn1cnc(S(=O)(=O)N(Cc2ccc(S(C)(=O)=O)cc2)C2Cc3cc(C#N)ccc3N(Cc3cncn3C)C2)c1 (configuration not stated),,,,,,,,,,,,,16 min
Cn1cnc(S(=O)(=O)N(Cc2ccccn2)C2Cc3cc(C#N)ccc3N(Cc3cncn3C)C2=O)c1 (configuration not stated),,,,0%,5 µM,8%,5%,,,,,,
Cc1ccccc1CN(C1Cc2cc(C#N)ccc2N(Cc2cncn2C)C1=O)S(=O)(=O)c1cn(C)cn1 (configuration not stated),,,,9%,5 µM,45%,12%,5 µM,,,,,
Cn1cncc1CN1C(=O)C(N(Cc2ccc(S(C)(=O)=O)cc2)S(=O)(=O)c2ccccn2)Cc2cc(C#N)ccc21 (configuration not stated),,,,15%,1.7 µM,91%,60%,0.275 µM,,,,,
Cn1cnc(S(=O)(=O)N(CC(=O)OC(C)(C)C)C2Cc3cc(C#N)ccc3N(Cc3cncn3C)C2=O)c1 (configuration not stated),,,21 min,62%,0.035 µM,100%,97%,0.03 µM,23%,92%,0%,75%,
